# Laboratory results reported in patent publication US11076594B2, “Pyrazolone compound or salt thereof, preparation method therefor, herbicide composition and use thereof” (QINGDAO KINGAGROOT CHEMICAL COMPOUNDS CO., LTD., priority 2015, dated 2021).
# Legend:
# Type in all cases: in vivo
# Details in all cases: post-emergence spray at 4-5 leaf stage, 250 g/ha active ingredient with 450 kg/ha water, rated after 3 weeks in greenhouse
# rice = assay: post-emergence stage experiment, crop (Table 1)
# Description: (§1) The activity level standard of harmful plant destruction (i.e. growth control rate) is as follows: The above described growth control rate is fresh weight control rate. Monocotyledonous and dicotyledonous weed seeds and main crop seeds (i.e. wheat, corn, rice, soybean, cotton, oilseed, millet and sorghum.) were put into a plastic pot loaded with soil. Then covered with 0.5-2 cm soil, the seeds were allowed to grow in good greenhouse environment. The test plants were treated at 4-5 leaf stage 2-3 weeks after sowing. The test compounds of the invention were dissolved with acetone respectively, then added with 80 tween and diluted by certain amount of water to certain concentration. The solution was sprayed to the plants with a sprayer. Then the plants were cultured for 3 weeks in the greenhouse.
# wheat = assay: post-emergence stage experiment, crop (Table 1)
# Description: as §1
# bidens bipinnata = assay: weed control effect in post-emergence stage (Table 1); set-up: key: Level 10: completely dead; Level 9: above 95% growth control rate; Level 8: above 90% growth control rate; Level 7: above 80% growth control rate; Level 6: above 70% growth control rate; Level 5: above 60% growth control rate; Level 4: above 50% growth control rate; Level 3: above 20% growth control rate; Level 2: 5%-20% growth control rate; Level 1: below 5% growth control rate
# Description: as §1
# Indian mallow = assay: as above; set-up: key: Level 10: completely dead; Level 9: above 95% growth control rate; Level 8: above 90% growth control rate; Level 7: above 80% growth control rate; Level 6: above 70% growth control rate; Level 5: above 60% growth control rate; Level 4: above 50% growth control rate; Level 3: above 20% growth control rate; Level 2: 5%-20% growth control rate; Level 1: below 5% growth control rate
# Description: as §1
# echinochloa = assay: as above; set-up: key: Level 10: completely dead; Level 9: above 95% growth control rate; Level 8: above 90% growth control rate; Level 7: above 80% growth control rate; Level 6: above 70% growth control rate; Level 5: above 60% growth control rate; Level 4: above 50% growth control rate; Level 3: above 20% growth control rate; Level 2: 5%-20% growth control rate; Level 1: below 5% growth control rate
# Description: as §1
# foxtail = assay: as above; set-up: key: Level 10: completely dead; Level 9: above 95% growth control rate; Level 8: above 90% growth control rate; Level 7: above 80% growth control rate; Level 6: above 70% growth control rate; Level 5: above 60% growth control rate; Level 4: above 50% growth control rate; Level 3: above 20% growth control rate; Level 2: 5%-20% growth control rate; Level 1: below 5% growth control rate
# Description: as §1
# rorippa indica = assay: as above; set-up: key: Level 10: completely dead; Level 9: above 95% growth control rate; Level 8: above 90% growth control rate; Level 7: above 80% growth control rate; Level 6: above 70% growth control rate; Level 5: above 60% growth control rate; Level 4: above 50% growth control rate; Level 3: above 20% growth control rate; Level 2: 5%-20% growth control rate; Level 1: below 5% growth control rate
# Description: as §1
# crab grass = assay: as above; set-up: key: Level 10: completely dead; Level 9: above 95% growth control rate; Level 8: above 90% growth control rate; Level 7: above 80% growth control rate; Level 6: above 70% growth control rate; Level 5: above 60% growth control rate; Level 4: above 50% growth control rate; Level 3: above 20% growth control rate; Level 2: 5%-20% growth control rate; Level 1: below 5% growth control rate
# Description: as §1
structure (smiles),measurement,setting,value
CC(=O)Nc1c(C(F)(F)F)ccc(C(=O)c2c(C)nn(C)c2O)c1Cl [Compound 002],"effect on crop, Rice (level)",rice,7 (Level 7: above 80% growth control rate)
same,"effect on crop, Wheat (level)",wheat,5 (Level 5: above 60% growth control rate)
same,"weed control effect, Bidens bipinnata (level)",bidens bipinnata,8 (Level 8: above 90% growth control rate)
same,"weed control effect, Indian mallow (level)",Indian mallow,10
same,"weed control effect, Echinochloa (level)",echinochloa,8 (Level 8: above 90% growth control rate)
same,"weed control effect, Green foxtail (level)",foxtail,7 (Level 7: above 80% growth control rate)
same,"weed control effect, Rorippa indica (level)",rorippa indica,9 (Level 9: above 95% growth control rate)
same,"weed control effect, Crab grass (level)",crab grass,4 (Level 4: above 50% growth control rate)
CC(=O)N(C)c1c(C(F)(F)F)ccc(C(=O)c2c(C)nn(C)c2O)c1Cl [Compound 004],"effect on crop, Rice (level)",rice,5 (Level 5: above 60% growth control rate)
same,"effect on crop, Wheat (level)",wheat,0
same,"weed control effect, Bidens bipinnata (level)",bidens bipinnata,9 (Level 9: above 95% growth control rate)
same,"weed control effect, Indian mallow (level)",Indian mallow,9 (Level 9: above 95% growth control rate)
same,"weed control effect, Echinochloa (level)",echinochloa,4 (Level 4: above 50% growth control rate)
same,"weed control effect, Green foxtail (level)",foxtail,1 (Level 1: below 5% growth control rate)
same,"weed control effect, Rorippa indica (level)",rorippa indica,9 (Level 9: above 95% growth control rate)
same,"weed control effect, Crab grass (level)",crab grass,4 (Level 4: above 50% growth control rate)
CCCCN(C(C)=O)c1c(C(F)(F)F)ccc(C(=O)c2c(C)nn(C)c2O)c1Cl [Compound 006],"effect on crop, Rice (level)",rice,1 (Level 1: below 5% growth control rate)
same,"effect on crop, Wheat (level)",wheat,0
same,"weed control effect, Bidens bipinnata (level)",bidens bipinnata,5 (Level 5: above 60% growth control rate)
same,"weed control effect, Indian mallow (level)",Indian mallow,0
same,"weed control effect, Echinochloa (level)",echinochloa,10
same,"weed control effect, Green foxtail (level)",foxtail,3 (Level 3: above 20% growth control rate)
same,"weed control effect, Rorippa indica (level)",rorippa indica,5 (Level 5: above 60% growth control rate)
same,"weed control effect, Crab grass (level)",crab grass,2 (Level 2: 5%-20% growth control rate)
COCCCN(C(C)=O)c1c(C(F)(F)F)ccc(C(=O)c2c(C)nn(C)c2O)c1Cl [Compound 008],"effect on crop, Rice (level)",rice,0
same,"effect on crop, Wheat (level)",wheat,0
same,"weed control effect, Bidens bipinnata (level)",bidens bipinnata,10
same,"weed control effect, Indian mallow (level)",Indian mallow,3 (Level 3: above 20% growth control rate)
same,"weed control effect, Echinochloa (level)",echinochloa,10
same,"weed control effect, Green foxtail (level)",foxtail,10
same,"weed control effect, Rorippa indica (level)",rorippa indica,0
same,"weed control effect, Crab grass (level)",crab grass,3 (Level 3: above 20% growth control rate)
CCOCCCN(C(C)=O)c1c(C(F)(F)F)ccc(C(=O)c2c(C)nn(C)c2O)c1Cl [Compound 009],"effect on crop, Rice (level)",rice,5 (Level 5: above 60% growth control rate)
same,"effect on crop, Wheat (level)",wheat,0
same,"weed control effect, Bidens bipinnata (level)",bidens bipinnata,5 (Level 5: above 60% growth control rate)
same,"weed control effect, Indian mallow (level)",Indian mallow,2 (Level 2: 5%-20% growth control rate)
same,"weed control effect, Echinochloa (level)",echinochloa,10
same,"weed control effect, Green foxtail (level)",foxtail,9 (Level 9: above 95% growth control rate)
same,"weed control effect, Rorippa indica (level)",rorippa indica,0
same,"weed control effect, Crab grass (level)",crab grass,1 (Level 1: below 5% growth control rate)
CC(=O)N(CCCOC(C)C)c1c(C(F)(F)F)ccc(C(=O)c2c(C)nn(C)c2O)c1Cl [Compound 010],"effect on crop, Rice (level)",rice,0
same,"effect on crop, Wheat (level)",wheat,0
same,"weed control effect, Bidens bipinnata (level)",bidens bipinnata,5 (Level 5: above 60% growth control rate)
same,"weed control effect, Indian mallow (level)",Indian mallow,0
same,"weed control effect, Echinochloa (level)",echinochloa,6 (Level 6: above 70% growth control rate)
same,"weed control effect, Green foxtail (level)",foxtail,5 (Level 5: above 60% growth control rate)
same,"weed control effect, Rorippa indica (level)",rorippa indica,0
same,"weed control effect, Crab grass (level)",crab grass,1 (Level 1: below 5% growth control rate)
CCCCOCCCN(C(C)=O)c1c(C(F)(F)F)ccc(C(=O)c2c(C)nn(C)c2O)c1Cl [Compound 011],"effect on crop, Rice (level)",rice,0
same,"effect on crop, Wheat (level)",wheat,0
same,"weed control effect, Bidens bipinnata (level)",bidens bipinnata,5 (Level 5: above 60% growth control rate)
same,"weed control effect, Indian mallow (level)",Indian mallow,0
same,"weed control effect, Echinochloa (level)",echinochloa,1 (Level 1: below 5% growth control rate)
same,"weed control effect, Green foxtail (level)",foxtail,1 (Level 1: below 5% growth control rate)
same,"weed control effect, Rorippa indica (level)",rorippa indica,0
same,"weed control effect, Crab grass (level)",crab grass,1 (Level 1: below 5% growth control rate)
COCCOCCCN(C(C)=O)c1c(C(F)(F)F)ccc(C(=O)c2c(C)nn(C)c2O)c1Cl [Compound 012],"effect on crop, Rice (level)",rice,0
same,"effect on crop, Wheat (level)",wheat,0
same,"weed control effect, Bidens bipinnata (level)",bidens bipinnata,10
same,"weed control effect, Indian mallow (level)",Indian mallow,10
same,"weed control effect, Echinochloa (level)",echinochloa,9 (Level 9: above 95% growth control rate)
same,"weed control effect, Green foxtail (level)",foxtail,2 (Level 2: 5%-20% growth control rate)
same,"weed control effect, Rorippa indica (level)",rorippa indica,0
same,"weed control effect, Crab grass (level)",crab grass,1 (Level 1: below 5% growth control rate)
Cc1nn(C)c(O)c1C(=O)c1ccc(C(F)(F)F)c(N2CCCC2=O)c1Cl [Compound 018],"effect on crop, Wheat (level)",wheat,3 (Level 3: above 20% growth control rate)
same,"weed control effect, Bidens bipinnata (level)",bidens bipinnata,10
same,"weed control effect, Indian mallow (level)",Indian mallow,9 (Level 9: above 95% growth control rate)
same,"weed control effect, Echinochloa (level)",echinochloa,8 (Level 8: above 90% growth control rate)
same,"weed control effect, Green foxtail (level)",foxtail,10
same,"weed control effect, Rorippa indica (level)",rorippa indica,10
same,"weed control effect, Crab grass (level)",crab grass,10
Cc1nn(C)c(O)c1C(=O)c1ccc(C(F)(F)F)c(-n2ccnc2)c1Cl [Compound 063],"effect on crop, Wheat (level)",wheat,0
same,"weed control effect, Bidens bipinnata (level)",bidens bipinnata,10
same,"weed control effect, Indian mallow (level)",Indian mallow,10
same,"weed control effect, Echinochloa (level)",echinochloa,1 (Level 1: below 5% growth control rate)
same,"weed control effect, Green foxtail (level)",foxtail,1 (Level 1: below 5% growth control rate)
same,"weed control effect, Rorippa indica (level)",rorippa indica,9 (Level 9: above 95% growth control rate)
same,"weed control effect, Crab grass (level)",crab grass,0
Cc1cnn(-c2c(C(F)(F)F)ccc(C(=O)c3c(C)nn(C)c3O)c2Cl)c1 [Compound 084],"effect on crop, Rice (level)",rice,7 (Level 7: above 80% growth control rate)
same,"effect on crop, Wheat (level)",wheat,0
same,"weed control effect, Bidens bipinnata (level)",bidens bipinnata,10
same,"weed control effect, Indian mallow (level)",Indian mallow,10
same,"weed control effect, Echinochloa (level)",echinochloa,10
same,"weed control effect, Green foxtail (level)",foxtail,10
same,"weed control effect, Rorippa indica (level)",rorippa indica,9 (Level 9: above 95% growth control rate)
same,"weed control effect, Crab grass (level)",crab grass,8 (Level 8: above 90% growth control rate)
Cc1cc(C)n(-c2c(C(F)(F)F)ccc(C(=O)c3c(C)nn(C)c3O)c2Cl)n1 [Compound 093],"effect on crop, Rice (level)",rice,0
same,"effect on crop, Wheat (level)",wheat,0
same,"weed control effect, Bidens bipinnata (level)",bidens bipinnata,5 (Level 5: above 60% growth control rate)
same,"weed control effect, Indian mallow (level)",Indian mallow,5 (Level 5: above 60% growth control rate)
same,"weed control effect, Echinochloa (level)",echinochloa,5 (Level 5: above 60% growth control rate)
same,"weed control effect, Green foxtail (level)",foxtail,2 (Level 2: 5%-20% growth control rate)
same,"weed control effect, Rorippa indica (level)",rorippa indica,0
same,"weed control effect, Crab grass (level)",crab grass,2 (Level 2: 5%-20% growth control rate)
Cc1nn(C)c(O)c1C(=O)c1ccc(C(F)(F)F)c(-n2cc(Cl)cn2)c1Cl [Compound 095],"effect on crop, Rice (level)",rice,6 (Level 6: above 70% growth control rate)
same,"effect on crop, Wheat (level)",wheat,0
same,"weed control effect, Indian mallow (level)",Indian mallow,0
same,"weed control effect, Echinochloa (level)",echinochloa,1 (Level 1: below 5% growth control rate)
same,"weed control effect, Green foxtail (level)",foxtail,1 (Level 1: below 5% growth control rate)
same,"weed control effect, Rorippa indica (level)",rorippa indica,0
same,"weed control effect, Crab grass (level)",crab grass,1 (Level 1: below 5% growth control rate)
